Laboratory results: patent US8222432B2 (BioLink Life Sciences, Inc., priority 2008, dated 2012)
Read-outs that look alike come from different tables or passages of the source. Blank lines part the entries; values can stand above or below the compound they belong to.

Experiments:
[1] = closed and sealed amber container, cited from earlier work
[2] = Storage stability of magnesium R-(+)-α-lipoate at room temperature / ambient humidity
Source text: Test samples of magnesium R-(+)-α-lipoate were stored at ambient temperatures for two years.

pyruvate dehydrogenase = conditions: cited from earlier work
[3] = test system: glucose transporters (GLUT 1 and GLUT 4); conditions: cited from earlier work
glucose assimilation = conditions: comparable to the effect of 200 nM insulin; cited from earlier work
diabetic neuropathy = conditions: >600 mg/day; cited from earlier work
nerve function = conditions: 600 or 1200 mg daily, 24 months; cited from earlier work
diabetic polyneuropathy = conditions: 3-week period; cited from earlier work
[4] = test system: cardiac autonomic neuropathy; conditions: 800 mg daily, 4 months, diabetic patients with cardiac autonomic neuropathy; cited from earlier work
[5] = test system: neuropathy impairment score; conditions: 600 mg daily for 6 months, 509 patients; cited from earlier work
[6] = test system: neuropathic symptoms and deficits; conditions: 600 mg/day over a 3-week period; cited from earlier work
[7] = ambient temperatures, two years

Compound: O=C(O)CCCCC1CCSS1 (stereo not drawn) [R-(+)-α-lipoic acid]
storage stability ([1]; refrigerated temperatures): must be used within a few months
visible signs of polymerization or degradation [2, 7]: clumping of the compound, development of a strong sulfur odor, and formation of small and visible gummy balls of dark yellow material
activity of pyruvate dehydrogenase (pyruvate dehydrogenase): increased
translocation of GLUT 1 and GLUT 4 from the cytosol to the plasma membrane [3]: stimulated
stimulation of glucose assimilation (factor) (glucose assimilation): greater than 2

hygroscopicity ([2]; ambient environments, relative humidities as high as 75%): not hygroscopic
physical state / appearance and properties on storage [2, 7]: did not change over time
physical appearance and properties on storage ([2]; room temperature, relative humidities as high as 75%, one week): did not change during storage
Compound: O=C(O)CCCC[C@@H]1CCSS1 [magnesium R-(+)-α-lipoate, magnesium R-(+)-alpha-lipoate]
chemical composition, purity and chiral purity on storage [2, 7]: did not change during storage under these conditions
visible signs of polymerization or degradation [2, 7]: no visible signs of polymerization or degradation

Compound: O=C(O)CCCCC1CCSS1 (stereo not drawn) [α-lipoic acid, 1,2-dithiocyclopentane-3-valeric acid]
storage stability ([1]; room temperature): a year or longer
patient symptoms (diabetic neuropathy): significantly improved patient symptoms
nerve function (nerve function): improved nerve function
sensory symptoms (Total Symptom Score) (diabetic polyneuropathy): improved sensory symptoms
heart rate variability [4]: significantly improved
neuropathy impairment score [5]: improved neuropathy impairment score as early as 19 days
positive neuropathic symptoms and neuropathic deficits; safety [6]: safe and effective

Compound: S-(−)-α-lipoic acid [S-(−)-α-lipoate]
activity of pyruvate dehydrogenase (pyruvate dehydrogenase): inhibited
total content of glucose transporters [3]: appeared to lower
translocation of GLUT 1 and GLUT 4 from the cytosol to the plasma membrane [3]: had no effect or has an inhibiting effect
stimulation of glucose assimilation (factor) (glucose assimilation): little or no change
